Test results taken from US4138589A, “Substituted isophthalamic acids” (Mallinckrodt, Inc., priority 1977, dated 1979).
Several values for one entry are separate records, joined by “and”; a condition that tells them apart may be missing. Equal values may be shown once. Where a name gives a salt, the structure may show the parent alone. Read-outs that look alike come from different tables or passages of the source.

Assays:
Water solubility = type: physicochemical; conditions: for solubility: water
[1] = prior art; cited from earlier work
[2] = found by V. H. Wallingford; cited from earlier work
rats = test: Intracisternal Toxicity in Rats; type: in vivo, Sprague Dawley (Carworth) rats; conditions: meglumine salt solution, two day observation
Method: (§1) Satisfactory intravenous urograms are obtained when any of the preparations described in Examples 28-32 is administered to dogs at a dosage of 350 mg. I/kg. Toxicity evaluations by three different techniques were carried out on solutions of the meglumine salts of three 5-acetamido-N-[poly(hydroxyalkyl)alkyl]2,4,6-triiodoisophthalamic acids of the invention. The techniques utilized are outlined below.
Sprague Dawley (Carworth) rats were used. The method used was a variation of the procedure outlined by Melartin et al. (Invest. Rad. 5:13-21, 1970). After dosing, the animals were housed individually, and observed for immediate reactions and periodically for a two day observation period. The LD50 values were calculated according to the method of Litchfield and Wilcoxon, (J. of Pharmac. and Exptl. Therap. 96:99-115, 1949).

mice [3] = test: Intracerebral Toxicity in Mice; type: in vivo, Swiss Albino mice (Charles River); conditions: meglumine salt solution, seven day observation
Method: as §1
Swiss Albino mice (Charles River) were used. Fixed volumes of solutions of various concentrations of the iodinated compounds were injected intracerebrally via a 27 gauge needle, (1/4 inch length) according to the method of Haley, et al. (Br. J. of Pharmac. 12:12-15, 1957). The animals were observed immediately after injections and daily throughout a seven day observation period. The LD50 values were calculated by the method of Litchfield and Wilcoxon (J. of Pharmac. and Exptl. Therap. 96:99-113, (1949).

[4] = Acute Intravenous Toxicity Studies in Mice; type: in vivo; conditions: mouse, in vivo, iv, meglumine salt solution, 28.27% iodine, lateral tail vein, 1 ml/min, seven day observation; read-out: LD50 I.V. (Mice)
Method: as §1
(§2) Swiss Albino mice (Charles River) were dosed in the lateral tail vein with solutions of the iodinated compound containing 28.27% of iodine, injected at the rate of 1 ml/min. […] The LD50 values were calculated by the method of Litchfield and Wilcoxon (J. of Pharmac. and Exptl. Therap. 96: 99-113, 1949).

mice [5] = test: Acute Intravenous Toxicity Studies in Mice; type: in vivo; conditions: meglumine salt solution, 28.27% iodine, lateral tail vein, 1 ml/min, seven day observation; 10080 min
Method: as §1, §2

[6] = temperature not stated, read-out: solubility

In the case of CC(=O)Nc1c(I)c(C(=O)[O-])c(I)c(C(=O)NC(COC(C)=O)(COC(C)=O)COC(C)=O)c1I.[Na+], the solubility (Water solubility; sodium salt powder, read-out: solubility in water) is reported as ≥ 1000 mg/mL.
COCC(=O)Nc1c(I)c(C(=O)[O-])c(I)c(C(=O)NC(CO)(CO)CO)c1I.[Na+] gave a solubility (Water solubility; sodium salt, 25° C., read-out: solubility in water) of ~674 mg/mL.
In the case of CC(=O)Nc1c(I)cc(I)c(C(=O)[O-])c1I.[Na+], the “toxicity (in words)” value [1] is listed as “unexpectedly low” and the “water solubility (in words)” value [2] is listed as “unexpectedly high”.
With CC(=O)Nc1c(I)c(C(=O)O)c(I)c(C(=O)NCCO)c1I [5-acetamido-2,4,6-triiodo-N-(2-hydroxyethyl)-isophthalamicacid, reference compound] the “LD50 Intracisternal (Rats)” value (rats) was 49 mg. contained iodine/kg. anima, the “LD50 Intracerebral (Mice)” value (mice [3]) was 174 mg. contained iodine/kg. anima and the LD50 at 168 h [4] was 5810 mg/kg.
With CC(=O)Nc1c(I)c(C(=O)O)c(I)c(C(=O)NC(CO)(CO)CO)c1I [Example 7, meglumine salt of 5-acetamido-N-[tris(hydroxymethyl)methyl]-2,4,6-triiodoisophthalamic acid] the solubility (Water solubility; [6]) was > 600 mg/mL.
For CC(=O)Nc1c(I)c(C(=O)O)c(I)c(C(=O)NC(C)(CO)CO)c1I [Example 10, 5-Acetamido-N-[2-(1,3-dihydroxy-2-methyl) Propyl]-2,4,6-triiodoisophthalamic Acid], the “LD50 Intracisternal (Rats)” value (rats) was 242 mg. contained iodine/kg. anima, the “LD50 Intracerebral (Mice)” value (mice [3]) was 790 mg. contained iodine/kg. anima and the LD50 at 168 h [4] was 4650 mg/kg.
With CC(=O)Nc1c(I)c(C(=O)O)c(I)c(C(=O)NC(C)(CO)CO)c1I [Example 11, 5-Acetamido-N-[2-(1,3-dihydroxy-2-methyl)-propyl]-2,4,6-triiodoisophthalamic Acid, Sodium Salt] the solubility (Water solubility; [6]) was ~820 mg/mL.
For CC(=O)Nc1c(I)c(C(=O)O)c(I)c(C(=O)NC(C)(COC(C)=O)COC(C)=O)c1I [Example 23, Sodium 5-acetamido-N-[(1,3-diacetoxy-2-methyl)-2-propyl]-2,4,6-triiodoisophthalamate], the “crystallization of aqueous solution on standing” value (Water solubility; 102.5% w/v solution, room temperature) was “No crystallization occurred” and the solubility (Water solubility; [6]) was > 1000 mg/mL.
For COCC(=O)Nc1c(I)c(C(=O)O)c(I)c(C(=O)NC(CO)(CO)CO)c1I [Example 26(d), 2,4,6-Triiodo-5-methoxyacetamido-N-[tris(hydroxymethyl)methyl]isophthalamic Acid], the “LD50 Intracisternal (Rats)” value (rats) was ~150 mg. contained iodine/kg. anima and the “LD50 Intracerebral (Mice)” value (mice [3]) was ~650 mg. contained iodine/kg. anima.
In the case of CC(=O)Nc1c(I)c(C(=O)O)c(I)c(C(=O)NC(CO)(CO)CO)c1I [Examples 4(A) and 5, 5-Acetamido-N-[tris(hydroxymethyl)methyl]-2,4,6-triiodoisophthalamic Acid], the “LD50 Intracisternal (Rats)” value (rats) is reported as 151 mg. contained iodine/kg. anima, the “LD50 Intracerebral (Mice)” value (mice [3]) is reported as 700 mg. contained iodine/kg. anima and 638 mg. contained iodine/kg. anima and the “LD50 I.V. (Mice)” value (mice [5]) is reported as 6200 mg. contained iodine/kg. anima. The LD50 at 168 h [4] was 6150 mg/kg.
With CNC(=O)c1c(I)c(NC(C)=O)c(I)c(C(=O)O)c1I [Iothalamic Acid, 5-acetamido-2,4,6-triiodo-N-methylisophthalamic acid, reference compound] the “LD50 Intracisternal (Rats)” value (rats) was 86 mg. contained iodine/kg. anima, the “LD50 Intracerebral (Mice)” value (mice [3]) was 280 mg. contained iodine/kg. anima and the LD50 at 168 h [4] was 5740 mg/kg.
In the case of CC(=O)Nc1c(I)c(NC(C)=O)c(I)c(C(=O)O)c1I [diatrizoic acid, 3,5-diacetamido-2,4,6-triiodobenzoic acid], the “toxicity (in words)” value [1] is given as “still further reduced toxicity as compared with acetrizoic acid”.
Nc1c(I)c(C(=O)O)c(I)c(C(=O)NC(CO)(CO)CO)c1I [sodium salt of 5-amino-N-[tris-(hydroxymethyl)methyl]-2,4,6-triiodoisophthalamic acid] showed a solubility (Water solubility; sodium salt, temperature not stated, read-out: water solubility) of ~800 mg/mL.
For CC(CO)(CO)NC(=O)c1c(I)c(N)c(I)c(C(=O)O)c1I [sodium salt of Example 9], the solubility (Water solubility; [6]) was ~930 mg/mL.
